The values below come from patent US11053281B2, “Peptoid affinity ligands” (MIKE-ANN, LLC, priority 2016, dated 2021).

Where two headings read alike, the source gives them in different places. *1 amine or outer side, *2 acyl side, *3 side chain or, on linkers, in order; H or OH if unused. Where a SMILES comes first, the peptide text is derived from it. [ ]: non-standard residue; d: D form. Gly(N(CH2)2(3-indolyl)) = O=C(O)CNCCc1c[nH]c2ccccc12; Gly(N-(CH2)3-guanidino) = N=C(N)NCCCNCC(=O)O; NGly(CH2(3-pyridyl)) = O=C(O)CNCc1cccnc1; N(CH2CH2COOH)Gly = O=C(O)CCNCC(=O)O; Cysteamide = C(CS[*:3])N[*:1]; Nphe = O=C(O)CNCc1ccccc1; NPrGly = CCCNCC(=O)O; Nme = COCCNCC(=O)O; Sar = CNCC(=O)O

This assay relates to polyclonal human IgG. Put plainly: Adsorption isotherm of peptoid affinity resins against polyclonal human IgG. The arrangement: Qmax: unit not given here. As to conditions: for Qmax: maximum capacity (qmax) of resin from isotherm fit; for Kd: peptoid ligand conjugated to chromatographic resin, IgG in PBS, hyperbola fit of isotherm, Kd given in molar, read-out: Kd x 10^−6. The class given is binding. The protocol:
The affinity for the peptoid-resin combinations was determined by measuring the adsorption isotherm of each resin against polyclonal human IgG (Pakimna et al., J Applied Sci., 12(11): 1136-1141, 2012). Briefly, 0.050 mL of 50% resin slurry was pipetted into 6 individual wells of a 96-well filter plate (0.45 micron, PVDF, Harvard Apparatus). The resin was washed with 2×250 μL PBS using a vacuum manifold. To an individual well, 0.25 mL of a human polyclonal IgG solution at different concentrations (10, 5, 2.5, 1.25, 0.625, and 0.3125 mg/mL) was added. The resin/IgG suspension was agitated gently on a rocking table for 30 minutes. The fluid was then collected via vacuum, and the resin was washed with 0.25 mL of PBS. The filtrate and wash were then analyzed by the BCA assay to determine the residual IgG concentration relative to the starting concentration of the solution.
The equilibrium concentrations were then used to determine the capacity of the resin at each IgG concentration using the following formula: q=Volumesample×(Initial Concentration−Equilibrium Concentration)/Volumeresin
A plot of q versus equilibrium concentration was generated and the data fit with a hyperbola to determine the affinity constant (Kd) and the maximum capacity (qmax) according to the below formula, where C=the equilibrium concentration of antibody in solution: q=qmax×C/(kd+C) Typical adsorption isotherm is shown in FIG. 2. Tabulated Kd and qmax data is found in Table 2.

Turning to `CCCN(CC(=O)N(CCc1c[nH]c2ccccc12)CC(=O)NCCS)C(=O)CN(CCc1c[nH]c2ccccc12)C(=O)CN(C)C(=O)CN(Cc1cccnc1)C(=O)CN(CCc1c[nH]c2ccccc12)C(=O)CNCCCNC(=N)N` [Ligand 18-28-6] (H-[Gly(N-(CH2)3-guanidino)][Gly(N(CH2)2(3-indolyl))][NGly(CH2(3-pyridyl))][Sar][Gly(N(CH2)2(3-indolyl))][NPrGly][Gly(N(CH2)2(3-indolyl))]-Cysteamide), under “Table 2”, the Qmax came to 42 and the Kd came out at 2.6 µM.

Take `CCCN(CC(=O)N(CCc1c[nH]c2ccccc12)CC(=O)NCCS)C(=O)CN(CCc1c[nH]c2ccccc12)C(=O)CN(C)C(=O)CN(CCCNC(=N)N)C(=O)CN(CCc1c[nH]c2ccccc12)C(=O)CNCCC(=O)O` [Ligand 18-28-7] (H-[N(CH2CH2COOH)Gly][Gly(N(CH2)2(3-indolyl))][Gly(N-(CH2)3-guanidino)][Sar][Gly(N(CH2)2(3-indolyl))][NPrGly][Gly(N(CH2)2(3-indolyl))]-Cysteamide): for the setting “Table 3”, the Qmax is given as 42 and the dissociation constant (Kd) stood at 5.6 µM.

With `CN(CC(=O)NCCS)C(=O)CN(CCC(=O)O)C(=O)CN(Cc1cccnc1)C(=O)CN(CCCNC(=N)N)C(=O)CN(CCC(=O)O)C(=O)CN(CCc1c[nH]c2ccccc12)C(=O)CNCc1cccnc1` [Ligand 18-28-9] (H-[NGly(CH2(3-pyridyl))][Gly(N(CH2)2(3-indolyl))][N(CH2CH2COOH)Gly][Gly(N-(CH2)3-guanidino)][NGly(CH2(3-pyridyl))][N(CH2CH2COOH)Gly][Sar]-Cysteamide), under “Table 2”, the Qmax worked out at 41 and the dissociation constant Kd amounted to 10 µM.

Turning to `COCCN(CC(=O)N(CC(=O)N(CCCNC(=N)N)CC(=O)N(CC(=O)N(CCC(=O)O)CC(=O)N(C)CC(=O)NCCS)Cc1cccnc1)Cc1ccccc1)C(=O)CNCc1cccnc1` [Ligand 18-28-12] (H-[NGly(CH2(3-pyridyl))][Nme][Nphe][Gly(N-(CH2)3-guanidino)][NGly(CH2(3-pyridyl))][N(CH2CH2COOH)Gly][Sar]-Cysteamide), under “Table 2”, the Qmax turned out to be 41 and the dissociation constant (Kd) stood at 16 µM.

As a reminder, the Kd is the concentration at which binding is half-saturated.
